The values that follow are results of earlier work, collected in PMC4033579 (Journal of experimental therapeutics & oncology, 2012).

Data set [1] concerns breast, ovarian, prostate tumor cells. Conditions: prostate cells in culture.
For data set [2], the system named is human tumor xenografts.

Structures are written as SMILES.

As to `Cc1cc(Nc2nc(N[C@@H](C)c3ncc(F)cn3)ncc2Cl)[nH]n1` [AZD 1840], the “cytotoxicity at concentrations that inhibit Tyr705 phosphorylation” value in data set [1] was “not cytotoxic”. Moreover, in data set [2], the “angiogenesis in human tumor xenografts” value is recorded as “reduction in angiogenesis” and the “growth of human tumor xenografts” value is on record as “reduced growth”.
